For data set [1], the system named is PC-3 prostate adenocarcinoma xenograft. The experiment in a line: Human tumor xenograft in nude mice. The data set is classed as in vivo. How it is done: (§1) Depending on the tumor type, treatment started on day 10 to day 21 when subcutaneous tumor size reached 35-200 mm^3, except otherwise indicated. Tumor size and body-weight were recorded every other day (Q2D) and, for humane reasons, the animals were sacrificed when tumor size reached ≧10% of body-weight. Each group, including untreated control, consisted of 3-5 animals unless otherwise indicated.
(§2) Athymic nude mice bearing the nu/nu gene were used for all human tumor xenografts. Outbred, Swiss-background mice were obtained from Charles River Laboratories. Male mice 8 weeks or older weighing 22 g and up were used for most experiments. The drug was administered via the tail vein for 6 hr.-i.v. infusion. Each individual mouse was confined in a perforated Falcon polypropylene tube restrainer for drug administration. Tumor volume was assessed by measuring length×width×height (or width) using a caliper. The programmable Harvard PHD2000 syringe pump (Harvard Apparatus) with multi-track was used for i.v. infusion. […] All animal studies were conducted in accordance with the guidelines of the National Institutes of Health “Guide for the Care and Use of Animals” and the protocol approved by the Memorial Sloan-Kettering Cancer Center's Institutional Animal Care and Use Committee. In keeping with the policy of this committee for the humane treatment of tumor-bearing animals, mice were euthanized when tumors reached ≧10% of their total body weight.
(§3) Human tumor cells (5×10^6) or tumor tissue (30-50 mg) were implanted s.c. flank in nu/nu mice (Charles River Laboratories, Wilmington, Mass.). When tumor grew to a specified size, treatment was started by every-other day×5 with 6 hr i.v.-infusion, unless otherwise indicated. Tumor volume was measured with calipers in three dimensions (length×width×height or width). Body-weight changes and lethality were monitored every other day.

For data set [2], the system named is HT-29 colon adenocarcinoma xenograft. In words: Human tumor xenograft in nude mice. It is filed as in vivo. The procedure:
as §1, §2, §3
Background: In xenograft studies the graft and the host belong to different species.

Data set [3] concerns CCRF-CEM/VBL leukemia xenograft. In words: Human tumor xenograft in nude mice. The data set is classed as in vivo. The conditions noted are these: for Lowest Average Tumor Size (T/C) / Tumor Disappearance: CCRF/VBL, dEpoB 30 mg/kg, Taxol 20 mg/kg, Q2Dx5, 6-hr i.v. infusion. The procedure: as §1, §2, §3
In data set [4] the test system is HL-60 promyelocytic leukemia xenograft. The experiment in a line: Human tumor xenograft in nude mice. It is filed as in vivo. The procedure:
as §1, §2, §3

The test system of data set [5] is A549 lung carcinoma xenograft. In words: Human tumor xenograft in nude mice. The data set is classed as in vivo. How it is done: as §1, §2, §3
Data set [6] relates to UL3-C ovary adenocarcinoma xenograft. The experiment in a line: Human tumor xenograft in nude mice. It is filed as in vivo. The procedure:
as §1, §2, §3

Data set [7] has as its system CCRF-CEM/Taxol leukemia xenograft. The experiment in a line: Human tumor xenograft in nude mice. The data set is classed as in vivo. Conditions: for Lowest Average Tumor Size (T/C) / Tumor Disappearance: CCRF/Taxol, dEpoB 30 mg/kg, Taxol 20 mg/kg, Q2Dx5, 6-hr i.v. infusion. The procedure:
as §1, §2, §3

The next data set has as its system DC-3F/ADX. In words: Tumor cell growth inhibition in vitro. It is filed as cell-based, hamster. The conditions noted are these: for IC50: DC-3F/ADX; for cross-resistance (fold of resistance vs parent cell line): DC-3F/ADX vs DC-3F. How it is done:
The fresh medium containing each drug was replenished every 7-14 days. […] In each case ,the drug-exposed cells were resuspended in fresh media for a minimum of 4 days before the experiments for the cell-growth inhibition was carried out.
(§4) The cells were cultured at an initial density of 2-5×10^4 cells per ml. They were maintained in a 5% CO2-humidified atmosphere at 37° C. in RPMI mediun 1640 (GIBCO/BRL) containing penicillin (100 units/ml), streptomycin (100 μg/ml) (GIBCO/BRL), and 5% heat-inactivated fetal bovine serum. For solid tumor cells growing in a monolayer (such as MCF-7/Adr), cytotoxicitiy of the drug was determined in 96-well microtiter plates by using the sulforhodamine B method as described by Skehan et al (23) for measuring the cellular protein content. For cells that were grown in suspension (such as CCRF-CEM and its sublines), cytotoxicitiy was measured by using the 2,-3-bis(2-methoxy-4-nitro-5-sulfophenyl)-5carboxanilide)-2H terazodium hydroxide (XTT)-microculture tetrazonium method (24) in duplicate in 96-well microtiter plates. For both methods, the absorbance of each well was measured with a microplate reader (EL-340, Bio-Tek, Burlington, Vt.). Each run entailed six or seven concentrations of the tested drugs. Dose-effect relationship data were analyzed with the median-effect plot (25) by using a previously described computer program (26).

The test system of the next data set is CCRF-CEM/VBL. The experiment in a line: Relative potency in vitro, very highly resistant MDR cells. It is filed as cell-based, human. The conditions noted are these: for IC50: Homo sapiens, CCRF-CEM, read-out: CCRF-CEM/VBL IC50 in μM; for Fold of Resistance (B)/(A): [IC50 CCRF-CEM/VBL]/[IC50 CCRF-CEM]. The procedure:
as §4

Data set [8] is described as follows: Stability in plasma in vitro (HPLC). It is filed as in vitro ADME, human. How it is done:
(FIG. 44). […] (FIG. 44).
Human blood plasma or nude mice plasma (300 μl) containing dEpoB (0.05-20 μg/ml) was added 30 μl of methanol and mixed for 2 min and then added 300 μl of methanol. The centrifuge supernatant was used for high performance liquid chromatography (HPLC). Nova-pak C18 column (15 cm) was used, with 50% acetonitrile/water with 0.8% triethylamine and 0.2% phosphoric acid as mobile phase. UV absorbance at 250 nm was measured.
Stability of dEpoF in animal plasmas. A HPLC method is set up using a NovaPak C 18, 3.9×300 mm column with a mobile phase of 50% acetonitrile in 50 mM potassium dihydrogen phosphate with 0.01% triethylamine at a flow rate of 0.8 ml/min. dEpoF is monitored at a wavelength of 260 nm and has a retention time of about 10 min. The plasma stability is performed with mouse plasma and dog plasma purchased from Pel-Freeze and human plasma from the blood center in MSKCC. A small amount of dEpoF was dissolved in 50% methanol/water at a concentration of 500 μg/mL. An aliquot of 20 μL is then spiked to 2 mL of plasma to a final plasma concentration of 5 μg/mL. The plasma samples were kept at 37 degree. […] Twenty μL of the supernatant was analyzed by HPLC without further modification. dEpoF disappears rapidly with half life about one hour in the commercial frozen mouse plasma alone, but stable in dog and human plasma.

Where [9] appears, read: PC-3, dEpoB 40 mg/kg, Taxol 15 mg/kg, Q2Dx3, 6-hr i.v. infusion.
[10] abbreviates: HT-29, dEpoB 30 mg/kg, Taxol 15 mg/kg, Q2Dx6, 6-hr i.v. infusion.
Where [11] appears, read: HL-60, dEpoB 30 mg/kg, Taxol 20 mg/kg, Q2Dx5, 6-hr i.v. infusion.
Setting [12] is: A549, dEpoB 40 mg/kg, Taxol 15 mg/kg, Q2Dx3, 6-hr i.v. infusion.
[13] abbreviates: dEpoB 30 mg/kg, Taxol 20 mg/kg, Q2Dx5, 6-hr i.v. infusion.

Read-outs that look alike come from different tables or passages of the source. Bounds are passed on as bounds.

Take `CC(=O)O[C@H]1C(=O)[C@@]2(C)[C@H]([C@H](OC(=O)c3ccccc3)[C@]3(O)C[C@H](OC(=O)[C@H](O)[C@@H](NC(=O)c4ccccc4)c4ccccc4)C(C)=C1C3(C)C)[C@]1(OC(C)=O)CO[C@@H]1C[C@@H]2O` [Taxol, paclitaxel, reference compound]: the “Tumor Disappearance” value in data set [1] (setting [9]) is on record as 0/4; in data set [2] (setting [10]), 0/4; in data set [3], 0/2; in [4] (setting [11]), 4/4; in [5] (setting [12]), 2/4; in data set [6] (setting [13]), 0/3. In addition, the “Tumor Disappearance” value in data set [7] was 0/2. For the same molecule, the entries for the “Lowest Average Tumor Size (T/C)” value in data set [3] and in data set [7] were 0.62 and 0.32, respectively. In addition, the IC50 is 583 nM in the data set on DC-3F/ADX and 20200 nM with DC-3F/ADX (listed as Paclitaxel).

For `C/C(=C\c1csc(C)n1)C1C[C@@H]2O[C@]2(C)CCC[C@H](C)[C@H](O)[C@@H](C)C(=O)C(C)(C)C(O)CC(=O)N1` (stereo partly drawn) [aza-EpoB, aza-epothilone B], the “cross-resistance (fold of resistance vs parent cell line)” value in the data set on DC-3F/ADX was found to be 33.1 x; with DC-3F/ADX (listed as 15-aza-EpoB) it was 274 x. In addition, the IC50 with DC-3F/ADX (listed as 15-aza-EpoB, read-out: IC50) stood at 2380 nM; in the data set on DC-3F/ADX (read-out: IC50) it was 288 nM.

On to `C/C1=C/C[C@@H](/C(C)=C/c2csc(C)n2)OC(=O)C[C@H](O)C(C)(C)C(=O)[C@H](C)[C@@H](O)[C@@H](C)CCC1` [dEpoB, 12,13-desoxyepothilone B], for which, in the data set on CCRF-CEM/VBL, the IC50 came out at 0.637 µM. Also, the “Fold of Resistance (B)/(A)” value in the data set on CCRF-CEM/VBL is on record as 8.6 x. Further, the “Therapeutic Effect Rank Order” value is “Taxol, VBL>dEpoB>>VP-16” in [1] (PC-3, i.v. infusion); “Taxol>dEpoB>>Adriamycin” in data set [1] (PC-3, i.v. or i/p.); “Taxol>dEpoB” in data set [2] (HT-29, i.v. infusion); “dEpoB>>>Taxol” in data set [3] (CCRF-CEM/VBL, i.v. infusion); “Taxol≧ dEpoB” in data set [4] (HL-60, i.v. infusion); “Taxol, dEpoB, VBL>VP-16” in [5] (A549, i.v. infusion). Further, the “Therapeutic Effect Rank Order” value is listed as “dEpoB≧ Taxol” in data set [6] (i.v. infusion) and “dEpoB>>>Taxol” in data set [7] (CCRF-CEM/Taxol, i.v. infusion). Besides, in data set [1] (PC-3, dEpoB 40 mg/kg, Taxol 15 mg/kg, Q2Dx3), the “Therapeutic Effects dEpoB vs Taxol” value is listed as “<<”. Moreover, the “Lowest Average Tumor Size (T/C)” value stood at 0.12 in data set [1] (setting [9]); 0.02 in data set [2] (setting [10]); 0 in data set [3]; 0.01 in data set [4] (setting [11]); 0.01 in data set [5] (setting [12]); 0.03 in [6] (setting [13]). Also, the “Lowest Average Tumor Size (T/C)” value in data set [7] worked out at 0. The “Tumor Disappearance” value is 0/3 in data set [1] (setting [9]); 0/3 in data set [2] (setting [10]); 2/2 in data set [3]; 2/3 in data set [4] (setting [11]); 1/3 in data set [5] (setting [12]); 0/3 in data set [6] (setting [13]). For the same molecule, the “Tumor Disappearance” value in [7] is recorded as 3/3. Moreover, the “period of stability in human plasma in vitro” value in data set [8] (human plasma, HPLC) is reported as “over 3 hrs”.

For `C/C1=C/C[C@@H](/C(C)=C/c2csc(CO)n2)OC(=O)C[C@H](O)C(C)(C)C(=O)[C@H](C)[C@@H](O)[C@@H](C)CCC1` [dEpoF, 12,13-Desoxyepothilone F], in the data set on CCRF-CEM/VBL, the IC50 was found to be 0.287 µM and the “Fold of Resistance (B)/(A)” value is on record as 33.6 x. Besides, the “potency relative to dEpoB (times less potent)” value in the data set on CCRF-CEM/VBL (MDR CCRF-CEM/VBL cells) was 4.5 ×. The “stability in human plasma” value in data set [8] (5 μg/mL, 37 degree) is “stable”.

Source of the values: US6867305B2, “Synthesis of epothilones, intermediates thereto and analogues thereof” (Sloan-Kettering Institute for Cancer Research, priority 1996, dated 2005).
